For eleven molecules, TGI results are on record in PubChem BioAssay (NCI).

Molecules are shown by their SMILES.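 In this assay, cells in 96-well plates receive the compound at five concentrations for 48 hours. Endpoints are linearly interpolated between the surrounding concentrations. Definition used: TGI = concentration required for complete inhibition of growth.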 Bounds are passed on as bounds.

Some test systems named below: HCC-2998 colon; SNB-19 CNS; DU-145 prostate; BT-549 breast; UACC-257 melanoma; MOLT-4 leukemia; TK-10 renal; NCI/ADR-RES ovarian; U251 CNS; HCT-15 colon; MCF7 breast; A498 renal; SK-MEL-2 melanoma; 786-0 renal; SNB-75 CNS; A549 NSCLC; UACC-62 melanoma; COLO 205 colon; OVCAR-5 ovarian.
Test in all cases: growth of human tumour cells (NCI), 48 h

Take `CN(CCNC(=O)c1nn(-c2ccccc2)c2c1Cc1ccccc1-2)CCNC(=O)c1nn(-c2ccccc2)c2c1Cc1ccccc1-2`: the TGI came out at 3.13 µM in the assay with HCC-2998 colon; 4.43 µM with SNB-19 CNS; 6.75 µM with DU-145 prostate; 18.7 µM in the assay on BT-549 breast; 3.42 µM in the assay with UACC-257 melanoma; 11 µM in the assay with MOLT-4 leukemia. In addition, the TGI turned out to be 4.3 µM in the assay on TK-10 renal; 6.36 µM in the assay on NCI/ADR-RES ovarian; 3.09 µM in the assay with U251 CNS; 3.67 µM in the assay on HCT-15 colon; 3.19 µM with MCF7 breast; 3.36 µM in the assay with A498 renal. The TGI is 3.38 µM in the assay on SK-MEL-2 melanoma; 3.08 µM in the assay with 786-0 renal; 3.5 µM in the assay on SNB-75 CNS; 4.93 µM in the assay with A549 NSCLC; 3.1 µM in the assay with UACC-62 melanoma; 3.32 µM in the assay on COLO 205 colon. Besides, in the assay with OVCAR-5 ovarian, the TGI stood at 6.8 µM.

Consider `C[C@]12CC[C@@H]3c4ccc(O)cc4CC[C@H]3[C@@H]1CC[C@@H]2OP(=O)(O)O`, for which the TGI in the assay on HCC-2998 colon, in the assay with SNB-19 CNS, in the assay on DU-145 prostate, in the assay with BT-549 breast, with UACC-257 melanoma and in the assay on MOLT-4 leukemia was over 100 µM in each case. The TGI with TK-10 renal, in the assay on NCI/ADR-RES ovarian, with U251 CNS, with HCT-15 colon, with MCF7 breast and in the assay on A498 renal was over 100 µM each time. The TGI in the assay with SK-MEL-2 melanoma, in the assay with 786-0 renal, with SNB-75 CNS, in the assay on A549 NSCLC, with UACC-62 melanoma and in the assay with COLO 205 colon was over 100 µM in each case. Moreover, the TGI in the assay with OVCAR-5 ovarian was over 100 µM.

In the case of `c1ccc(-c2nnc(-c3ccccn3)c3c2C[C@@H]2C[C@@H]4Cc5c(-c6ccccn6)nnc(-c6ccccn6)c5[C@@H]4[C@H]32)nc1`, the TGI with HCC-2998 colon, in the assay with SNB-19 CNS, with DU-145 prostate, in the assay on BT-549 breast, in the assay on UACC-257 melanoma and with MOLT-4 leukemia was over 100 µM each time. The TGI in the assay with TK-10 renal was over 100 µM; in the assay with NCI/ADR-RES ovarian, over 100 µM; in the assay on U251 CNS it was 89.1 µM; in the assay on HCT-15 colon, over 100 µM; in the assay with MCF7 breast, over 100 µM; in the assay on A498 renal, 6.35 µM. The TGI in the assay with SK-MEL-2 melanoma, in the assay with 786-0 renal, in the assay with SNB-75 CNS, in the assay with A549 NSCLC, in the assay on UACC-62 melanoma and with COLO 205 colon was over 100 µM each time. This molecule also had a TGI with OVCAR-5 ovarian of over 100 µM.

As to `Cc1ccc2nc(Cl)c(/C=N/N3C(=O)/C(=C/c4cccc([N+](=O)[O-])c4)N=C3c3ccccc3)cc2c1`, the TGI in the assay on HCC-2998 colon was over 100 µM; with SNB-19 CNS, over 100 µM; with DU-145 prostate it was over 100 µM; with BT-549 breast, over 100 µM; in the assay with UACC-257 melanoma it was over 100 µM; in the assay on MOLT-4 leukemia, 80.5 µM. The TGI is over 100 µM in the assay on TK-10 renal; over 100 µM in the assay with NCI/ADR-RES ovarian; over 100 µM with U251 CNS; over 100 µM with HCT-15 colon; 93.7 µM in the assay with MCF7 breast; 52.3 µM in the assay with A498 renal. In addition, the TGI with SK-MEL-2 melanoma was 61.7 µM; in the assay with 786-0 renal, over 100 µM; in the assay on SNB-75 CNS, over 100 µM; with A549 NSCLC, over 100 µM; in the assay on UACC-62 melanoma, over 100 µM; with COLO 205 colon, over 100 µM. Further, in the assay on OVCAR-5 ovarian, the TGI is over 100 µM.

For the molecule `CC(=O)OC/C=C/[C@H](O[Si](C)(C)C(C)(C)C)[C@@H](O)/C=C/COC(C)=O`, the TGI with HCC-2998 colon is over 100 µM; in the assay with SNB-19 CNS, over 100 µM; in the assay with DU-145 prostate, over 100 µM; in the assay on BT-549 breast, over 100 µM; in the assay with UACC-257 melanoma, over 100 µM; in the assay with MOLT-4 leukemia, 54.8 µM. For the same molecule, the TGI with TK-10 renal, with NCI/ADR-RES ovarian, in the assay on U251 CNS, in the assay on HCT-15 colon, with MCF7 breast and with A498 renal was over 100 µM throughout. For the same molecule, the TGI with SK-MEL-2 melanoma, in the assay with 786-0 renal, in the assay on SNB-75 CNS, with A549 NSCLC, in the assay on UACC-62 melanoma and in the assay with COLO 205 colon was over 100 µM each time. The molecule also came in with a TGI in the assay with OVCAR-5 ovarian of over 100 µM.

On to `CC(Cc1ccccc1)Nc1ncnc2c1ncn2C1OC(CO)CC1O` (centres undefined), for which the TGI with HCC-2998 colon, with SNB-19 CNS, in the assay on DU-145 prostate, with BT-549 breast, in the assay with UACC-257 melanoma and in the assay on MOLT-4 leukemia was over 100 µM in each case. Also, the TGI in the assay with TK-10 renal, in the assay on NCI/ADR-RES ovarian, in the assay on U251 CNS, with HCT-15 colon, in the assay with MCF7 breast and in the assay on A498 renal was over 100 µM in each case. For the same molecule, the TGI in the assay on SK-MEL-2 melanoma, in the assay on 786-0 renal, in the assay with SNB-75 CNS, in the assay with A549 NSCLC, with UACC-62 melanoma and in the assay on COLO 205 colon was over 100 µM throughout. The molecule also registered a TGI with OVCAR-5 ovarian of over 100 µM.

For `CC[C@@]1(O)C(=O)OCc2c1cc1n(c2=O)Cc2c-1nc1ccccc1c2/C=N\NC(=O)C(N)CO` (some centres undefined), the TGI is over 100 µM with HCC-2998 colon; over 100 µM in the assay with SNB-19 CNS; over 100 µM in the assay with DU-145 prostate; over 100 µM with BT-549 breast; over 65.8 µM in the assay on UACC-257 melanoma; 1.58 µM with MOLT-4 leukemia. Also, the TGI in the assay with TK-10 renal was over 100 µM; in the assay on NCI/ADR-RES ovarian, 9.2 µM; in the assay on U251 CNS, over 20.9 µM; with HCT-15 colon, over 100 µM; in the assay on MCF7 breast, 21.3 µM; in the assay on A498 renal, 12.2 µM. Besides, the TGI was over 100 µM in the assay on SK-MEL-2 melanoma; 13 µM in the assay on 786-0 renal; 0.312 µM with SNB-75 CNS; over 100 µM with A549 NSCLC; 0.419 µM in the assay on UACC-62 melanoma; over 100 µM with COLO 205 colon. The molecule also showed a TGI in the assay with OVCAR-5 ovarian of over 100 µM.

In the case of `N#C[C@@H](c1nc2ccccc2s1)c1ncccc1[N+](=O)[O-]`, the TGI is 28.5 µM in the assay with HCC-2998 colon; 17.4 µM in the assay on SNB-19 CNS; over 31.6 µM in the assay with DU-145 prostate; 26.9 µM in the assay with BT-549 breast; over 100 µM with UACC-257 melanoma; over 31.6 µM in the assay with MOLT-4 leukemia. Further, the TGI in the assay on TK-10 renal was 74.7 µM; with NCI/ADR-RES ovarian it was 19.4 µM; in the assay on U251 CNS, 11.7 µM; in the assay on HCT-15 colon, over 31.6 µM; in the assay on MCF7 breast it was 17.3 µM; in the assay with A498 renal, over 31.6 µM. The TGI in the assay on SK-MEL-2 melanoma was over 31.6 µM; in the assay with 786-0 renal, 17.2 µM; in the assay on SNB-75 CNS, over 31.6 µM; with A549 NSCLC, 18.1 µM; in the assay on UACC-62 melanoma, over 31.6 µM; with COLO 205 colon, 8.8 µM. Besides, the TGI with OVCAR-5 ovarian is over 31.6 µM.

With `Cn1c(=O)c2c(nc3n(CCCCl)c(=O)ccn23)n(C)c1=O`, the TGI in the assay with HCC-2998 colon, in the assay on SNB-19 CNS, with DU-145 prostate, in the assay with BT-549 breast, in the assay on UACC-257 melanoma and in the assay on MOLT-4 leukemia was over 100 µM each time. The TGI in the assay on TK-10 renal, in the assay on NCI/ADR-RES ovarian, with U251 CNS, in the assay with HCT-15 colon, in the assay on MCF7 breast and in the assay on A498 renal was over 100 µM throughout. The TGI in the assay with SK-MEL-2 melanoma, in the assay on 786-0 renal, in the assay with SNB-75 CNS, in the assay with A549 NSCLC, in the assay on UACC-62 melanoma and in the assay with COLO 205 colon was over 100 µM throughout. For the same molecule, the TGI in the assay on OVCAR-5 ovarian is over 100 µM.

Regarding `O=C1NCC(CSc2nc3cc(C4CCCc5c4[nH]c4ccccc54)ccc3o2)N1` (centres undefined), the TGI in the assay with HCC-2998 colon, with SNB-19 CNS, in the assay on DU-145 prostate, with BT-549 breast, in the assay on UACC-257 melanoma and with MOLT-4 leukemia was over 100 µM throughout. Also, the TGI is over 100 µM with TK-10 renal; over 100 µM in the assay with NCI/ADR-RES ovarian; over 100 µM with U251 CNS; over 100 µM in the assay on HCT-15 colon; over 100 µM with MCF7 breast; 50.6 µM in the assay on A498 renal. Also, the TGI with SK-MEL-2 melanoma, in the assay on 786-0 renal, in the assay with SNB-75 CNS, in the assay with A549 NSCLC, in the assay on UACC-62 melanoma and in the assay with COLO 205 colon was over 100 µM in each case. The same molecule gave a TGI in the assay on OVCAR-5 ovarian of over 100 µM.

Take `COc1ccc(CCCCl)c(C2=NCCc3cc(OC)c(OC)cc32)c1`: the TGI in the assay with HCC-2998 colon, in the assay on SNB-19 CNS, with DU-145 prostate, with BT-549 breast, in the assay with UACC-257 melanoma and in the assay with MOLT-4 leukemia was over 100 µM throughout. The TGI with TK-10 renal, with NCI/ADR-RES ovarian, in the assay on U251 CNS, in the assay with HCT-15 colon, with MCF7 breast and with A498 renal was over 100 µM each time. Also, the TGI in the assay with SK-MEL-2 melanoma is over 100 µM; in the assay on 786-0 renal, over 100 µM; in the assay on SNB-75 CNS it was over 100 µM; in the assay with A549 NSCLC it was over 100 µM; in the assay on UACC-62 melanoma it was over 100 µM; with COLO 205 colon, 68.9 µM. For the same molecule, in the assay with OVCAR-5 ovarian, the TGI is over 100 µM.
